Measured values from US20070054916A1, “Aryl nitrogen-containing bicyclic compounds and methods of use” (Amgen Inc., priority 2004, published 2007).

Test system: production of TNF by monocytes activated with bacterial lipopolysaccharide (LPS)
Experiment: Lipopolysaccharide-activated monocyte TNF production assay
Type: cell-based
Details: Homo sapiens, read-out: IC50 values in the monocyte assay (LPS induced TNF release)
How it was run: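 Adherent human PBMC-derived monocytes (~70%) in DMEM/2% FCS were pre-incubated 60 min with nine two-fold compound dilutions, then stimulated with E. coli K532 LPS (added as 30 ng/ml solution) for 4 h at 37 °C. Supernatant TNF-α was measured by sandwich ELISA. IC50 was taken from a polynomial fit of TNF versus compound concentration.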

| Structure (SMILES) | IC50 [µM] |
| --- | --- |
| Cc1ccc(C(=O)Nc2cc(C(F)(F)F)ccc2N(C)C)cc1-c1ccc2nc(N)ncc2c1 [Example 81, 3-(2-amino-6-quinazolinyl)-N-(2-(dimethylamino)-5-(trifluoromethyl)phenyl)-4-methylbenzamide] | ≤ 25 |
| Cc1ccc(C(=O)Nc2cccc(C(F)(F)F)c2C)cc1-c1ccc2nc(NCCN3CCCC3)ncc2c1 [Example 33, 4-methyl-N-(2-methyl-3-(trifluoromethyl)phenyl)-3-(2-((2-(1-pyrrolidinyl)ethyl)amino)-6-quinazolinyl) benzamide] | ≤ 25 |
| CCc1ccnc(NC(=O)c2ccc(C)c(-c3ccc4nc(N)ncc4c3)c2)c1 [Example 340, 3-(2-amino-6-quinazolinyl)-N-(4-ethyl-2-pyridinyl)-4-methylbenzamide] | ≤ 25 |
| COc1ccc(C(C)(C)C)cc1NC(=O)c1ccc(Cl)c(-c2ccc3nc(N)ncc3c2)c1 [Example 139, 3-(2-amino-6-quinazolinyl)-4-chloro-N-(5-(1,1-dimethylethyl)-2-(methyloxy)phenyl)benzamide] | ≤ 25 |
| Cc1ccc(C(=O)Nc2cc(C(F)(F)F)ccc2N2CCN(C)CC2)cc1-c1ccc2nc(N)ncc2c1 [Example 74, 3-(2-amino-6-quinazolinyl)-4-methyl-N-(2-(4-methyl-1-piperazinyl)-5-(trifluoromethyl)phenyl)benzamide] | ≤ 25 |
| CCN(CC)CCNC(=O)c1cc(NC(=O)c2ccc(C)c(-c3cnc4nc(NC)ncc4c3)c2)cc(C(F)(F)F)c1 [Example 190, N-(3-(((2-(diethylamino)ethyl)amino)carbonyl)-5-(trifluoromethyl)phenyl)-4-methyl-3-(2-(methylamino)pyrido [2,3-d]pyrimidin-6-yl)benzamide] | ≤ 25 |
| Nc1ncc2cc(-c3cc(C(=O)Nc4cccc(C(F)(F)F)c4)ccc3F)ccc2n1 [Example 137, 3-(2-amino-6-quinazolinyl)-4-fluoro-N-(3 (trifluoromethyl)phenyl)benzamide] | ≤ 25 |
| Nc1ncc2cc(-c3ccc(F)c(NC(=O)c4ccccc4)c3)ccc2n1 [Example 485, N-(5-(2-amino-6-quinazolinyl)-2-fluorophenyl)benzamide] | ≤ 25 |
| COc1c(Cl)cccc1NC(=O)c1ccc(C)c(-c2ccc3nc(N)ncc3c2)c1 [Example 284, 3-(2-amino-6-quinazolinyl)-N-(5-chloro-8-(methyloxy)-phenyl)-4-methylbenzamide] | ≤ 25 |
| Cc1ccc(C(=O)Nc2ccc(N3CCCC3)c(C(=O)N3CCCC3)c2F)cc1-c1ccc2nc(N)ncc2c1 [Example 428, 3-(2-amino-6-quinazolinyl)-N-(2-fluoro-4-(1-pyrrolidinyl)-3-(1-pyrrolidinylcarbonyl)phenyl)-4-methylbenzamide] | ≤ 25 |
| Cc1ccc(C(=O)NCc2ccncc2)cc1-c1ccc2nc(N)ncc2c1 [Example 425, 3-(2-amino-6-quinazolinyl)-4-methyl-N-(4-pyridinylmethyl) benzamide] | ≤ 25 |
| Cc1cccc(C)c1-c1ccc2nc(NCCN3CCOCC3)ncc2c1 [Example 534, 6-(2,6-dimethylphenyl)-N-(2-morpholinoethyl)quinazolin-2-amine] | ≤ 25 |
| Cc1ccc(C(=O)Nc2cc(C(C)(C)C)ccc2N(C)CCCN(C)C)cc1-c1ccc2nc(N)ncc2c1 [Example 244, 3-(2-amino-6-quinazolinyl)-N-(2-((3-(dimethylamino)propyl)(methyl)amino)-5-(1,1-dimethylethyl)phenyl)-4-methylbenzamide] | ≤ 25 |
| Cc1c(NC(=O)c2cc(C(F)(F)F)ccc2F)cccc1-c1ccc2nc(N)ncc2c1 [Example 222, N-(3-(2-amino-6-quinazolinyl)-2-methylphenyl)-2-fluoro-5-(trifluoromethyl) benzamide] | ≤ 25 |
| Cc1c(NC(=O)c2cccc(C(F)(F)F)c2)cccc1-c1ccc2nc(N)ncc2c1 [Example 197, N-(3-(2-amino-6-quinazolinyl)-2-methylphenyl)-3-(trifluoromethyl)benzamide] | ≤ 25 |
| Cc1ccc(C(=O)Nc2cccc(C(F)(F)F)c2F)cc1-c1ccc2nc(Nc3ccc(OCCCN4CCCCC4)cc3)ncc2c1 [Example 31, N-(2-fluoro-3-(trifluoromethyl)phenyl)-4-methyl-3-(2-((4-((3-(1-piperidinyl)propyl)oxy)phenyl)amino)-6-quinazotinyl) benzamide] | ≤ 25 |
| CNc1ncc2cc(-c3cc(NC(=O)c4cc(C(F)(F)F)cc(C(F)(F)F)c4)ccc3C)cnc2n1 [Example 200, N-(4-methyl-3-(2-(methylamino)pyrido[2,3-d]pyrimidin-6-yl)phenyl)-3,5-bis(trifluoromethyl)benzamide] | ≤ 25 |
| Cc1ccc(C(=O)Nc2cc(C(C)(C)C)ccc2C(C)(C)C)cc1-c1ccc2nc(N)ncc2c1 [Example 78, 3-(2-amino-6-quinazolinyl)-N-(2,5-bis(1,1-dimethylethyl)phenyl)-4-methylbenzamide] | ≤ 25 |
| COc1ccc(Cl)cc1NC(=O)c1ccc(C)c(-c2ccc3nc(N)ncc3c2)c1 [Example 143, 3-(2-amino-6-quinazolinyl)-N-(5-chloro-2-(methyloxy)phenyl)-4-methylbenzamide] | ≤ 25 |
| Cc1cc(NC(=O)c2ccc(C)c(-c3ccc4nc(N)ncc4c3)c2)c(N(C)CCCN(C)C)cc1C [Example 116, 3-(2-amino-6-quinazolinyl)-N-(2-((3-(dimethylamino)propyl)(methyl)amino)-4,5-dimethylphenyl)-4-methylbenzamide] | ≤ 25 |
| COc1cc(OC)cc(C(=O)Nc2cc(-c3ccc4nc(N)ncc4c3)ccc2F)c1 [Example 490, N-(5-(2-amino-6-quinazolinyl)-2-fluorophenyl)-3,5-bis(methyloxy)benzamide] | ≤ 25 |
| Cc1ccc(C(=O)Nc2ncc(Cl)cc2Cl)cc1-c1ccc2nc(N)ncc2c1 [Example 346, 3-(2-amino-6-quinazolinyl)-N-(3,5-dichloro-2-pyridinyl)-4-methylbenzamide] | ≤ 25 |
| CNc1ncc2cc(-c3cc(C(=O)Nc4cccc(C(F)(F)F)c4)ccc3C)ccc2n1 [Example 18, 4-methyl-3-(2-(methylamino)-6-quinazolinyl)-N-(3-(trifluoromethyl)phenyl)benzamide] | ≤ 25 |
| CNc1ncc2cc(-c3ccc(F)c(C(=O)Nc4cc(C(F)(F)F)ccc4N(C)CCCN(C)C)c3)ccc2n1 [Example 9, N-(2-((3-(dimethylamino)propyl)(methyl)amino)-5-(trifluoromethyl)phenyl)-2-fluoro-5-(2-(methylamino)-6-quinazolinyl)benzamide] | ≤ 25 |
| CNc1ncc2cc(-c3cccc(NC(=O)c4cc(F)cc(C(F)(F)F)c4)c3C)cnc2n1 [Example 219] | ≤ 25 |
| Cc1ccc(C(=O)Nc2c(N(C)CCCN(C)C)ccc(C(F)(F)F)c2C)cc1-c1ccc2nc(N)ncc2c1 [Example 117, 3-(2-amino-6-quinazolinyl)-N-(6-((3-(dimethylamino)propyl)(methyl)amino)-2-methyl-3-(trifluoromethyl)phenyl)-4-methylbenzamide] | ≤ 25 |
| Nc1ncc2cc(-c3cc(C(=O)Nc4cc(C(F)(F)F)ccc4N4CCCCC4)ccc3Cl)ccc2n1 [Example 156, 3-(2-amino-6-quinazolinyl)-4-chloro-N-(2-(1-piperidinyl)-5-(trifluoromethyl)phenyl)benzamide] | ≤ 25 |
